Series [1] can be described thus: Metabolic stability in human liver microsomes. Type of series: in vitro ADME. As to conditions: LM Clint (intrinsic clearance); 1 μM test compound, 0.5 mg protein/mL microsome, 37° C., up to 60 min.
The target in series [2] is T1, TNIK kinase [amino acid sequence (1-367), Invitrogen] (Homo sapiens, UniProt Q9UKE5).
T1 construct: purchased Invitrogen
Description: TNIK kinase inhibition assay (Z-lyte FRET-peptide). The format is biochemical. As to conditions: 0.625 nM TNIK kinase, 2 μM Ser/Thr 7 peptide, 64 μM ATP, one hour at room temperature.

The structures appear in SMILES notation.

T1 sequence (Q9UKE5 1-367): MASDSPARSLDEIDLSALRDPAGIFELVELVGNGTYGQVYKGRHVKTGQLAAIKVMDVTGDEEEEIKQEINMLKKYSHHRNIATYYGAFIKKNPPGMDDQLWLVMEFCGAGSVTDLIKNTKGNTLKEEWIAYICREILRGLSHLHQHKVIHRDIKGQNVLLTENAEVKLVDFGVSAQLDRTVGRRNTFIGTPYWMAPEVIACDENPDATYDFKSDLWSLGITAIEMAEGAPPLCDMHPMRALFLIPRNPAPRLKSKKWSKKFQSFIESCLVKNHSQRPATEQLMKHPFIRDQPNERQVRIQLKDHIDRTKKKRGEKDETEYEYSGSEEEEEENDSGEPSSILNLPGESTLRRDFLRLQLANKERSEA

Regarding `CC(C)n1cnc(-c2ccc(F)cc2)c1-c1nc(C(=O)Nc2ccc(C3=C[C@H]4CC[C@@H](C3)N4C)cn2)cs1` [Compound 61, 2-(4-(4-fluorophenyl)-1-isopropyl-1H-imidazol-5-yl)-N-(5-((1R,5S)-8-methyl-8-azabicyclo[3.2.1]oct-2-en-3-yl)pyridin-2-yl)thiazole-4-carboxamide], the “Human Liver Microsome (μM/min/mg)” value in series [1] is “++ (10-100 μM/min/mg as ++)”. Besides, the IC50 in series [2] fell in the range of 0.001 to 0.012 µM.

Consider `COCCN1CC(c2ccc(NC(=O)c3csc(-c4c(-c5ccc(F)cc5)ncn4C(C)C)n3)nc2)C1` [Compound 109, 2-(4-(4-fluorophenyl)-1-isopropyl-1H-imidazol-5-yl)-N-(5-(1-(2-methoxyethyl)azetidin-3-yl)pyridin-2-yl)thiazole-4-carboxamide], for which the “Human Liver Microsome (μM/min/mg)” value in series [1] is “++ (10-100 μM/min/mg as ++)”. In series [2], this compound gave an IC50 of 0.001 to 0.012 µM.

Regarding `O=C(Nc1ccc(C2COC2)cn1)c1coc(-c2c(-c3ccc(F)cc3)ncn2C2CC(F)(F)C2)n1` [Compound 63, 2-(1-(3,3-difluorocyclobutyl)-4-(4-fluorophenyl)-1H-imidazol-5-yl)-N-(5-(oxetan-3-yl)pyridin-2-yl)oxazole-4-carboxamide], in series [1], the “Human Liver Microsome (μM/min/mg)” value is listed as “+ (>100 μM/min/mg as +)”. For the same compound, the IC50 in series [2] was greater than 0.15 µM.

As for `CC(C)n1cnc(-c2ccc(F)cc2)c1-c1nc(C(=O)Nc2ccc(C3CN(C)C3)cn2)cs1` [Compound 30, 2-(4-(4-fluorophenyl)-1-isopropyl-1H-imidazol-5-yl)-N-(5-(1-methylazetidin-3-yl)pyridin-2-yl)thiazole-4-carboxamide], in series [1], the “Human Liver Microsome (μM/min/mg)” value is on record as “++ (10-100 μM/min/mg as ++)”. For the same compound, the IC50 in series [2] lay in the range of 0.001 to 0.012 µM.

As to `CC(C)c1onc(-c2ccc(F)cc2)c1-c1nc(C(=O)Nc2ccc(C3CN(C)C3)cn2)cs1` [Compound 90, 2-(3-(4-fluorophenyl)-5-isopropylisoxazol-4-yl)-N-(5-(1-methylazetidin-3-yl)pyridin-2-yl)thiazole-4-carboxamide], the “Human Liver Microsome (μM/min/mg)” value in series [1] is “++ (10-100 μM/min/mg as ++)”. The same compound yielded an IC50 in series [2] of 0.001 to 0.012 µM.

As for `CC(C)n1cnc(-c2ccc(F)cc2)c1-c1nc(C(=O)Nc2ccc(N3CCN(C)CC3)cc2)cs1` [Compound 2, 2-(4-(4-fluorophenyl)-1-isopropyl-1H-imidazol-5-yl)-N-(4-(4-methylpiperazin-1-yl)phenyl)thiazole-4-carboxamide], the “Human Liver Microsome (μM/min/mg)” value in series [1] is “++ (10-100 μM/min/mg as ++)”. Moreover, the IC50 in series [2] lay in the range of 0.001 to 0.012 µM.

Take `CC(C)c1onc(-c2ccc(F)cc2)c1-c1nc(C(=O)Nc2ccc(N3CC4CC(C3)N4C)cn2)cs1` [Compound 96, 2-(3-(4-fluorophenyl)-5-isopropylisoxazol-4-yl)-N-(5-(6-methyl-3,6 diazabicyclo[3.1.1]heptan-3-yl)pyridin-2-yl)thiazole-4-carboxamide]: the “Human Liver Microsome (μM/min/mg)” value in series [1] is given as “++ (10-100 μM/min/mg as ++)”. In series [2], the IC50 lay in the range of 0.001 to 0.012 µM.

`CC(C)n1cnc(-c2ccc(F)cc2)c1-c1nc(C(=O)Nc2ccc(N3C[C@H]4CC[C@@H](C3)N4C)cn2)cs1` [Compound 41, 2-(4-(4-fluorophenyl)-1-isopropyl-1H-imidazol-5-yl)-N-(5-((1R,5S)-8-methyl-3,8-diazabicyclo[3.2.1]octan-3-yl)pyridin-2-yl)thiazole-4-carboxamide]: in series [1], the “Human Liver Microsome (μM/min/mg)” value is given as “++ (10-100 μM/min/mg as ++)”. In series [2], this compound had an IC50 of 0.001 to 0.012 µM.

Turning to `CC(C)n1cnc(-c2ccc(F)cc2)c1-c1nc(C(=O)Nc2ccc(C3CCOCC3)cn2)c[nH]1` [Compound 53, 5′-(4-fluorophenyl)-3′-isopropyl-N-(5-(tetrahydro-2H-pyran-4-yl)pyridin-2-yl)-1H,3′H-[2,4′-biimidazole]-4-carboxamide], the “Human Liver Microsome (μM/min/mg)” value in series [1] is “++ (10-100 μM/min/mg as ++)”. In series [2], this compound yielded an IC50 of 0.001 to 0.012 µM.

Regarding `[2H]C([2H])([2H])N1CC(c2ccc(NC(=O)c3c[nH]c(-c4c(-c5ccc(F)cc5)ncn4C(C)C)n3)c(F)c2)C1` [Compound 114, 2-[5-(4-fluorophenyl)-3-isopropyl-imidazol-4-yl]-N-[2-fluoro-4-[1-(trideuteriomethyl)azetidin-3-yl]phenyl]-1H-imidazole-4-carboxamide], the “Human Liver Microsome (μM/min/mg)” value in series [1] was “+++ (1-10 μM/min/mg as +++)”. In series [2], the IC50 was in the range of 0.001 to 0.012 µM.

With `[2H]C([2H])([2H])N1CC(c2ccc(NC(=O)c3csc(-c4c(-c5ccc(F)c(Cl)c5)ncn4C(C)C)n3)nc2)C1` [Compound 123, 2-[5-(3-chloro-4-fluoro-phenyl)-3-isopropyl-imidazol-4-yl]-N-[5-[1-(trideuteriomethyl)azetidin-3-yl]-2-pyridyl]thiazole-4-carboxamide], the “Human Liver Microsome (μM/min/mg)” value in series [1] was “++ (10-100 μM/min/mg as ++)”. For the same compound, in series [2], the IC50 is 0.001 to 0.012 µM.

Regarding `CC(C)c1noc(-c2ccc(F)cc2)c1-c1nc(C(=O)Nc2ccc(C3COC3)cc2F)cs1` [Compound 31, N-(2-fluoro-4-(oxetan-3-yl)phenyl)-2-(5-(4-fluorophenyl)-3-isopropylisoxazol-4-yl)thiazole-4-carboxamide], the “Human Liver Microsome (μM/min/mg)” value in series [1] is reported as “++ (10-100 μM/min/mg as ++)”. In series [2], this compound showed an IC50 of 0.012 to 0.15 µM.

As to `CC(C)n1cnc(-c2ccc(F)cc2)c1-c1nc(C(=O)Nc2ccc(N3CCOCC3)cn2)cs1` [Compound 99, 2-(4-(4-fluorophenyl)-1-isopropyl-1H-imidazol-5-yl)-N-(5-morpholinopyridin-2-yl)thiazole-4-carboxamide], in series [1], the “Human Liver Microsome (μM/min/mg)” value is “++ (10-100 μM/min/mg as ++)”. The compound also registered an IC50 in series [2] of 0.001 to 0.012 µM.

For `CC(C)n1cnc(-c2ccc(F)cc2)c1-c1nc(C(=O)Nc2ccc(N3C[C@H]4CC[C@@H](C3)N4C)cn2)c[nH]1` [Compound 24, 5′-(4-fluorophenyl)-3′-isopropyl-N-(5-((1R,5S)-8-methyl-3,8-diazabicyclo[3.2.1]octan-3-yl)pyridin-2-yl)-1H,3′H-[2,4′-biimidazole]-4-carboxamide], in series [1], the “Human Liver Microsome (μM/min/mg)” value was “++ (10-100 μM/min/mg as ++)”. For the same compound, the IC50 in series [2] lay within 0.001 to 0.012 µM.

Regarding `[2H]C([2H])([2H])N1CCN(c2ccc(NC(=O)c3c[nH]c(-c4c(-c5ccc(F)cc5)ncn4C(C)C)n3)nc2)CC1` [Compound 124, 2-[5-(4-fluorophenyl)-3-isopropyl-imidazol-4-yl]-N-[5-[4 (trideuteriomethyl)piperazin-1-yl]-2-pyridyl]-1H-imidazole-4-carboxamide], the “Human Liver Microsome (μM/min/mg)” value in series [1] is “++ (10-100 μM/min/mg as ++)”. Moreover, the IC50 in series [2] lay in the range of 0.001 to 0.012 µM.

For the origin of these results see US20240336611A1 (Insilico Medicine IP Limited, priority 2021, published 2024).
